The molecules below were run against T1, active p38 alpha enzyme (Upstate Biotechnology) (Homo sapiens, UniProt Q16539) (assay: p38α biochemical assay (ATP turnover, luminescent detection, Cambrex PKlight)). Settings: p38α kinase; Table 1 Biological Activity.
T1 construct: purchased Upstate Biotechnology
Summary of the method: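 p38α + MapkapK2 (whole protein substrate) + 1.4 uM ATP final; Tris/MOPS buffer with MgCl2, CaCl2, EGTA, EDTA, glycerol, β-ME, BSA; 2 h at 30C; luminescent detection of remaining ATP.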

T1 sequence (Q16539 whole entry): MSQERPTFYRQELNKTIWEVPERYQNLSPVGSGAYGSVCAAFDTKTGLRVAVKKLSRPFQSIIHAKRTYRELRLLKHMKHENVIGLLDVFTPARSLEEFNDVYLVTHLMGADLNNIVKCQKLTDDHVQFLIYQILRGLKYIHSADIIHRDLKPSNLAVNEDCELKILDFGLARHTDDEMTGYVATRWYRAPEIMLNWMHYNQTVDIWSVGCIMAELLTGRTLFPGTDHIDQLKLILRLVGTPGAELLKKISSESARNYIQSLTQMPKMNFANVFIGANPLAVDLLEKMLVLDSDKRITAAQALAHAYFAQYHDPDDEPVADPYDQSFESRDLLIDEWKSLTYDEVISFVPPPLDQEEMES

SMILES | IC50
CC(C)NC(=O)c1csc(-c2oc(CN3CCN(c4ccccn4)CC3)nc2-c2ccc(F)cc2)n1 [Example 1242] | > 1000 nM
CCCCN(Cc1ccccc1)Cc1nc(-c2ccc(F)cc2)c(-c2nc(C(=O)NC(C)C)cs2)o1 [Example 1243] | > 1000 nM
CC(C)NC(=O)c1csc(-c2oc(CN(CCO)[C@H](C)c3ccccc3)nc2-c2ccc(F)cc2)n1 [Example 1244] | > 1000 nM
CC(C)NC(=O)c1csc(-c2oc(CN(CCCO)Cc3ccccn3)nc2-c2ccc(F)cc2)n1 [Example 1245] | > 1000 nM
CC(C)NC(=O)c1csc(-c2oc(CN(C)CC(O)c3ccc(O)cc3)nc2-c2ccc(F)cc2)n1 (stereo not drawn) [Example 1246] | > 1000 nM
CC(C)NC(=O)c1csc(-c2oc(CN3CCN(C4CCCCC4)CC3)nc2-c2ccc(F)cc2)n1 [Example 1247] | > 1000 nM
CC(C)NC(=O)c1csc(-c2oc(CN3CCC(Cc4ccccc4)CC3)nc2-c2ccc(F)cc2)n1 [Example 1248] | > 1000 nM
CC(C)NC(=O)c1csc(-c2oc(CN3CCN(Cc4ccccc4)CC3)nc2-c2ccc(F)cc2)n1 [Example 1249] | > 1000 nM
CC(C)NC(=O)c1csc(-c2oc(CN3CCCN(Cc4ccccc4)CC3)nc2-c2ccc(F)cc2)n1 [Example 1250] | > 1000 nM
CC(C)NC(=O)c1csc(-c2oc(CN3CCN(c4ccc(O)cc4)CC3)nc2-c2ccc(F)cc2)n1 [Example 1251] | > 1000 nM
CC(C)NC(=O)c1csc(-c2oc(CN(CCN(C)C)Cc3ccccc3)nc2-c2ccc(F)cc2)n1 [Example 1252] | > 1000 nM
CC(C)NC(=O)c1csc(-c2oc(CN3CCN(c4ccccc4F)CC3)nc2-c2ccc(F)cc2)n1 [Example 1253] | > 1000 nM
CC(C)NC(=O)c1csc(-c2oc(CN3CCN(c4ccc(F)cc4)CC3)nc2-c2ccc(F)cc2)n1 [Example 1254] | > 1000 nM
CC(C)NC(=O)c1csc(-c2oc(CN3CCN(CC4CCCCC4)CC3)nc2-c2ccc(F)cc2)n1 [Example 1255] | > 1000 nM
CC(C)NC(=O)c1csc(-c2oc(CN(C)C[C@H](O)c3ccc(O)c(O)c3)nc2-c2ccc(F)cc2)n1 [Example 1256] | > 1000 nM
CCOC(=O)CC1C(=O)NCCN1Cc1nc(-c2ccc(F)cc2)c(-c2nc(C(=O)NC(C)C)cs2)o1 (stereo not drawn) [Example 1257] | > 1000 nM

SMILES | IC50
CC(C)NC(=O)c1csc(-c2oc(CN3CCN(C(=O)OC(C)(C)C)CC3)nc2-c2ccc(F)cc2)n1 [Example 1258] | > 1000 nM
CC(C)NC(=O)c1csc(-c2oc(CN3CCC(NC(=O)OC(C)(C)C)C3)nc2-c2ccc(F)cc2)n1 (stereo not drawn) [Example 1259] | > 1000 nM
CC(C)NC(=O)c1csc(-c2oc(CN3CCN(c4ccccc4C#N)CC3)nc2-c2ccc(F)cc2)n1 [Example 1260] | > 1000 nM
CC(C)NC(=O)c1csc(-c2oc(CN3CCN(c4ccc(C#N)cn4)CC3)nc2-c2ccc(F)cc2)n1 [Example 1261] | > 1000 nM
Cc1cccc(N2CCN(Cc3nc(-c4ccc(F)cc4)c(-c4nc(C(=O)NC(C)C)cs4)o3)CC2)c1C [Example 1262] | > 1000 nM
Cc1cccc(N2CCN(Cc3nc(-c4ccc(F)cc4)c(-c4nc(C(=O)NC(C)C)cs4)o3)CC2C)c1 (stereo not drawn) [Example 1264] | > 1000 nM
CC(C)NC(=O)c1csc(-c2oc(CN3CCN(CCc4ccccc4)CC3)nc2-c2ccc(F)cc2)n1 [Example 1265] | > 1000 nM
Cc1ccc(N2CCN(Cc3nc(-c4ccc(F)cc4)c(-c4nc(C(=O)NC(C)C)cs4)o3)CC2)cc1C [Example 1266] | > 1000 nM
Cc1ccc(N2CCN(Cc3nc(-c4ccc(F)cc4)c(-c4nc(C(=O)NC(C)C)cs4)o3)CC2)c(C)c1 [Example 1267] | > 1000 nM
Cc1ccc(C)c(N2CCN(Cc3nc(-c4ccc(F)cc4)c(-c4nc(C(=O)NC(C)C)cs4)o3)CC2)c1 [Example 1268] | > 1000 nM
COc1ccc(N2CCN(Cc3nc(-c4ccc(F)cc4)c(-c4nc(C(=O)NC(C)C)cs4)o3)CC2)cc1 [Example 1269] | > 1000 nM
COc1ccccc1N1CCN(Cc2nc(-c3ccc(F)cc3)c(-c3nc(C(=O)NC(C)C)cs3)o2)CC1 [Example 1270] | > 1000 nM
COc1cccc(N2CCN(Cc3nc(-c4ccc(F)cc4)c(-c4nc(C(=O)NC(C)C)cs4)o3)CC2)c1 [Example 1271] | > 1000 nM
COc1ccc(CCN(C)Cc2nc(-c3ccc(F)cc3)c(-c3nc(C(=O)NC(C)C)cs3)o2)cc1OC [Example 1272] | > 1000 nM
CC(C)NC(=O)c1csc(-c2oc(CN3CCN(c4cccc(Cl)c4)CC3)nc2-c2ccc(F)cc2)n1 [Example 1273] | > 1000 nM

Continued, values first:

IC50 | SMILES
> 1000 nM | CC(C)NC(=O)c1csc(-c2oc(CN3CCN(c4ccc(Cl)cc4)CC3)nc2-c2ccc(F)cc2)n1 [Example 1274]
> 1000 nM | CC(C)NC(=O)c1csc(-c2oc(CN3CCN(c4ccc(F)cc4F)CC3)nc2-c2ccc(F)cc2)n1 [Example 1276]
> 1000 nM | CC(C)NC(=O)c1csc(-c2oc(CN(Cc3cccnc3)Cc3cccnc3)nc2-c2ccc(F)cc2)n1 [Example 1277]
> 1000 nM | CC(C)NC(=O)c1csc(-c2oc(CN3CCN(CCN4CCOCC4)CC3)nc2-c2ccc(F)cc2)n1 [Example 1278]
> 1000 nM | CC(C)NC(=O)c1csc(-c2oc(CN3CCC(N(C)C(=O)OC(C)(C)C)C3)nc2-c2ccc(F)cc2)n1 (stereo not drawn) [Example 1279]
> 1000 nM | CC(=O)c1ccc(N2CCN(Cc3nc(-c4ccc(F)cc4)c(-c4nc(C(=O)NC(C)C)cs4)o3)CC2)cc1 [Example 1280]
> 1000 nM | CCN(CC)CCN(Cc1ccccc1)Cc1nc(-c2ccc(F)cc2)c(-c2nc(C(=O)NC(C)C)cs2)o1 [Example 1281]
> 1000 nM | CC(C)NC(=O)c1csc(-c2oc(CN3CCN(c4ccc([N+](=O)[O-])cc4)CC3)nc2-c2ccc(F)cc2)n1 [Example 1282]
> 1000 nM | CC(C)NC(=O)c1csc(-c2oc(CN(C)Cc3cccc4ccccc34)nc2-c2ccc(F)cc2)n1 [Example 1283]
> 1000 nM | Cc1ccc(Cl)cc1N1CCN(Cc2nc(-c3ccc(F)cc3)c(-c3nc(C(=O)NC(C)C)cs3)o2)CC1 [Example 1284]
> 1000 nM | COc1cc(CN(C)Cc2nc(-c3ccc(F)cc3)c(-c3nc(C(=O)NC(C)C)cs3)o2)cc(OC)c1OC [Example 1285]
> 1000 nM | CC(C)NC(=O)c1csc(-c2oc(CN(CCc3ccccc3)Cc3ccccc3)nc2-c2ccc(F)cc2)n1 [Example 1286]
> 1000 nM | CC(C)NC(=O)c1csc(-c2oc(CN(C)C(Cc3ccccc3)c3ccccc3)nc2-c2ccc(F)cc2)n1 (stereo not drawn) [Example 1288]
> 1000 nM | CC(C)NC(=O)c1csc(-c2oc(CN3CCC(O)(c4ccc(Cl)cc4)CC3)nc2-c2ccc(F)cc2)n1 [Example 1289]
> 1000 nM | C#CCN(Cc1nc(-c2ccc(F)cc2)c(-c2nc(C(=O)NC(C)C)cs2)o1)Cc1ccc(Cl)cc1Cl [Example 1290]
> 1000 nM | CCN(Cc1nc(-c2ccc(F)cc2)c(-c2nc(C(=O)NC(C)C)cs2)o1)C(Cc1ccccc1)c1ccco1 (stereo not drawn) [Example 1291]
> 1000 nM | CC(C)NC(=O)c1csc(-c2oc(CN3CCN(C(=O)OC(C)(C)C)C[C@H]3CO)nc2-c2ccc(F)cc2)n1 [Example 1292]
> 1000 nM | CC(C)NC(=O)c1csc(-c2oc(CN3CCN(c4ccc(C(C)(C)C)cc4)CC3)nc2-c2ccc(F)cc2)n1 [Example 1293]
> 1000 nM | CC(C)NC(=O)c1csc(-c2oc(CN3CCN(Cc4ccc5c(c4)OCO5)CC3)nc2-c2ccc(F)cc2)n1 [Example 1294]

IC50 | SMILES
> 1000 nM | COc1cc2c(cc1OC)CN(Cc1nc(-c3ccc(F)cc3)c(-c3nc(C(=O)NC(C)C)cs3)o1)CC2 [Example 1295]
> 1000 nM | CC(C)NC(=O)c1csc(-c2oc(CN3CCN(c4ccc(C(F)(F)F)cc4)CC3)nc2-c2ccc(F)cc2)n1 [Example 1296]
> 1000 nM | CC(C)NC(=O)c1csc(-c2oc(CN3CCN(c4cccc(C(F)(F)F)c4)CC3)nc2-c2ccc(F)cc2)n1 [Example 1297]
> 1000 nM | CC(C)NC(=O)c1csc(-c2oc(CN3CCN(c4ccc(Cl)c(Cl)c4)CC3)nc2-c2ccc(F)cc2)n1 [Example 1298]
> 1000 nM | CC(C)NC(=O)c1csc(-c2oc(CN3CCN(c4ccc(C(F)(F)F)cn4)CC3)nc2-c2ccc(F)cc2)n1 [Example 1300]
> 1000 nM | CC(C)NC(=O)c1csc(-c2oc(CN3CCN(c4ccccc4Cl)CC3)nc2-c2ccc(F)cc2)n1 [Example 1301]
> 1000 nM | COc1ccc(N2CCN(Cc3nc(-c4ccc(F)cc4)c(-c4nc(C(=O)NC(C)C)cs4)o3)CC2)cc1OC [Example 1302]
> 1000 nM | CC(C)NC(=O)c1csc(-c2oc(CN3CCCC(c4ccc(C(F)(F)F)cc4)C3)nc2-c2ccc(F)cc2)n1 (stereo not drawn) [Example 1303]
> 1000 nM | CC(C)NC(=O)c1csc(-c2oc(CNC3CCCc4ccccc43)nc2-c2ccc(F)cc2)n1 (stereo not drawn) [Example 1304]
> 1000 nM | CC(C)NC(=O)c1csc(-c2oc(CNc3ccccc3)nc2-c2ccc(F)cc2)n1 [Example 1307]
> 1000 nM | Cc1cccc(NCc2nc(-c3ccc(F)cc3)c(-c3nc(C(=O)NC(C)C)cs3)o2)c1 [Example 1308]
> 1000 nM | Cc1ccc(NCc2nc(-c3ccc(F)cc3)c(-c3nc(C(=O)NC(C)C)cs3)o2)cc1 [Example 1309]
> 1000 nM | Cc1ccccc1NCc1nc(-c2ccc(F)cc2)c(-c2nc(C(=O)NC(C)C)cs2)o1 [Example 1310]
> 1000 nM | Cc1ccc(NCc2nc(-c3ccc(F)cc3)c(-c3nc(C(=O)NC(C)C)cs3)o2)nc1 [Example 1311]
> 1000 nM | Cc1cccc(NCc2nc(-c3ccc(F)cc3)c(-c3nc(C(=O)NC(C)C)cs3)o2)n1 [Example 1312]
> 1000 nM | Cc1ccnc(NCc2nc(-c3ccc(F)cc3)c(-c3nc(C(=O)NC(C)C)cs3)o2)c1 [Example 1313]
> 1000 nM | Cc1cccnc1NCc1nc(-c2ccc(F)cc2)c(-c2nc(C(=O)NC(C)C)cs2)o1 [Example 1314]
> 1000 nM | CC(C)NC(=O)c1csc(-c2oc(CNc3ccccc3F)nc2-c2ccc(F)cc2)n1 [Example 1315]
> 1000 nM | CC(C)NC(=O)c1csc(-c2oc(CNc3ccc(F)cc3)nc2-c2ccc(F)cc2)n1 [Example 1316]

From US20060252807A1, “Novel ortho-terphenyl inhibitors of p38 kinase and methods of treating inflammatory disorders” (Kalypsys, Inc., priority 2005, published 2006)
